Experimental data taken from ChEMBL document CHEMBL1201862, “PubChem BioAssay data set” (2004).
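Results reflect a 48-hour exposure of cells in 96-well plates to compound at five concentrations. GI50 is the concentration that inhibits growth by half.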 Active and inactive are the calls of the source. Cut-off read from the data, not from the text of the source: active = GI50 up to about 1.1 µM and inactive = higher.

How the values were obtained:
Test in all cases: growth of human tumour cells (NCI), 48 h
UO-31 = tested on: UO-31
HCC 2998 = tested on: HCC 2998
K562 = tested on: K562
SK-MEL-5 = tested on: SK-MEL-5
UACC-257 = tested on: UACC-257
A549 = tested on: A549
SF-539 = tested on: SF-539
OVCAR-5 = tested on: OVCAR-5
OVCAR-3 = tested on: OVCAR-3
MOLT-4 = tested on: MOLT-4
KM12 = tested on: KM12
NCI-H460 = tested on: NCI-H460
SW-620 = tested on: SW-620
OVCAR-8 = tested on: OVCAR-8
HCT-116 = tested on: HCT-116
SK-MEL-2 = tested on: SK-MEL-2
HT-29 = tested on: HT-29
Malme-3M = tested on: Malme-3M
HOP-92 = tested on: HOP-92
RXF 393 = tested on: RXF 393

Measured: GI50

CCOC(=O)C1=C(C)N(C2OC(COC(=O)c3ccccc3)C(OC(=O)c3ccccc3)C2OC(=O)c2ccccc2)C(=S)NC1c1ccccc1 (stereo not drawn)
inactive: UO-31 24.2 µM | HCC 2998 49.2 µM | K562 17.1 µM | SK-MEL-5 18.4 µM | UACC-257 33.5 µM | A549 37.4 µM | SF-539 54.8 µM | OVCAR-5 61.7 µM | OVCAR-3 21.9 µM | MOLT-4 16.1 µM | KM12 50.2 µM | NCI-H460 31.4 µM | SW-620 33.3 µM | OVCAR-8 44.4 µM | HCT-116 29.9 µM | SK-MEL-2 64.3 µM | HT-29 50.6 µM | Malme-3M 25.5 µM

Cc1ccc(NC(=O)CC(=O)n2nc(-c3ccccc3)c(/N=N/c3ccccc3Cl)c2-c2ccccc2)cc1
inactive: UO-31 > 10 µM | HCC 2998 > 10 µM | K562 94.8 µM | SK-MEL-5 67.1 µM | UACC-257 > 10 µM | A549 98.2 µM | SF-539 76.6 µM | OVCAR-5 19.4 µM | OVCAR-3 > 10 µM | MOLT-4 > 10 µM | KM12 > 10 µM | HOP-92 23.6 µM | NCI-H460 75.5 µM | SW-620 92 µM | OVCAR-8 42.5 µM | HCT-116 39.5 µM | SK-MEL-2 > 10 µM | HT-29 > 10 µM | Malme-3M 48.3 µM

O=C(CC(C(=O)c1cccs1)c1ccc2c(c1)OCO2)c1ccc(Br)cc1 (stereo not drawn)
inactive: UO-31 14.9 µM | HCC 2998 > 100 µM | K562 > 100 µM | SK-MEL-5 > 100 µM | UACC-257 > 100 µM | A549 > 100 µM | MOLT-4 > 100 µM | KM12 > 100 µM | NCI-H460 > 100 µM | SW-620 > 100 µM | OVCAR-8 > 100 µM | Malme-3M > 100 µM

Cc1ccc(Nc2n[nH]c(NS(=O)(=O)c3cc(C(=O)Nc4ccc(Cl)cc4)c(Cl)cc3S)n2)cc1
inactive: UO-31 > 100 µM | K562 > 100 µM | SK-MEL-5 > 100 µM | UACC-257 > 100 µM | A549 99.8 µM | SF-539 > 100 µM | OVCAR-5 > 100 µM | OVCAR-3 > 100 µM | MOLT-4 > 100 µM | KM12 > 100 µM | RXF 393 62.2 µM | NCI-H460 36 µM | SW-620 > 100 µM | OVCAR-8 > 100 µM | HCT-116 > 100 µM | HT-29 89.9 µM | Malme-3M 50.5 µM

CCOC(=O)C(Cc1ccccc1)NC(=O)OC(C)(C)C (stereo not drawn)
inactive: UO-31 > 100 µM | HCC 2998 > 100 µM | K562 > 100 µM | UACC-257 > 100 µM | A549 > 100 µM | SF-539 > 100 µM | OVCAR-5 > 100 µM | OVCAR-3 > 100 µM | MOLT-4 > 100 µM | KM12 > 100 µM | HOP-92 > 100 µM | NCI-H460 > 100 µM | SW-620 > 100 µM | OVCAR-8 > 100 µM | HCT-116 > 100 µM | SK-MEL-2 > 100 µM | HT-29 > 100 µM | Malme-3M > 100 µM

CSc1cc(Cl)c(C)cc1S(=O)(=O)NC(=O)NNc1ccc(F)c(Cl)c1
inactive: HCC 2998 > 100 µM | K562 > 100 µM | SK-MEL-5 > 100 µM | A549 > 100 µM | SF-539 > 100 µM | OVCAR-5 > 100 µM | OVCAR-3 > 100 µM | MOLT-4 45.7 µM | KM12 > 100 µM | RXF 393 > 100 µM | NCI-H460 > 100 µM | SW-620 > 100 µM | OVCAR-8 > 100 µM | HCT-116 > 100 µM | SK-MEL-2 > 100 µM | HT-29 > 100 µM | Malme-3M > 100 µM

Cc1ccc(-c2cc(-c3ccco3)c(C#N)c(=O)n2C2OC(CO)C(O)C(O)C2O)cc1 (stereo not drawn)
inactive: UO-31 59.6 µM | HCC 2998 > 100 µM | K562 > 100 µM | SK-MEL-5 22 µM | UACC-257 58.5 µM | OVCAR-5 > 100 µM | OVCAR-3 45.6 µM | MOLT-4 > 100 µM | KM12 84.5 µM | RXF 393 48.3 µM | NCI-H460 37.1 µM | SW-620 93.8 µM | OVCAR-8 32.2 µM | HCT-116 94.8 µM | HT-29 > 100 µM | Malme-3M 41 µM

CC(Cn1c(=O)oc2ccccc21)N(C)C (stereo not drawn)
inactive: K562 > 100 µM | SK-MEL-5 > 100 µM | UACC-257 > 100 µM | SF-539 > 100 µM | OVCAR-5 > 100 µM | OVCAR-3 > 100 µM | MOLT-4 > 100 µM | KM12 > 100 µM | RXF 393 > 100 µM | NCI-H460 > 100 µM | SW-620 > 100 µM | OVCAR-8 > 100 µM | HCT-116 > 100 µM | SK-MEL-2 > 100 µM | HT-29 > 100 µM | Malme-3M > 100 µM

O=C1C(Cl)N(c2cccc(Cl)c2)C1c1c[nH]c2ccccc12 (stereo not drawn)
inactive: UO-31 > 100 µM | K562 > 100 µM | SK-MEL-5 > 100 µM | UACC-257 > 100 µM | A549 > 100 µM | SF-539 > 100 µM | OVCAR-3 > 100 µM | MOLT-4 > 100 µM | KM12 > 100 µM | RXF 393 > 100 µM | HOP-92 > 100 µM | NCI-H460 > 100 µM | SW-620 > 100 µM | OVCAR-8 > 100 µM | HCT-116 > 100 µM | SK-MEL-2 > 100 µM | HT-29 > 100 µM | Malme-3M > 100 µM

CC(=O)O[C@]12CCCCCC1C1(O)C(O)CCCC[C@H]12 (stereo partly drawn)
inactive: UO-31 > 100 µM | K562 > 100 µM | SK-MEL-5 > 100 µM | UACC-257 > 100 µM | A549 > 100 µM | MOLT-4 > 100 µM | KM12 > 100 µM | RXF 393 > 100 µM | NCI-H460 > 100 µM | SW-620 > 100 µM | OVCAR-8 > 100 µM | SK-MEL-2 > 100 µM | HT-29 > 100 µM | Malme-3M > 100 µM

COC(=O)C12CC3CC(CC(C(=O)O)(C3)C1)C2
inactive: UO-31 > 100 µM | HCC 2998 > 100 µM | K562 > 100 µM | SK-MEL-5 > 100 µM | UACC-257 > 100 µM | A549 > 100 µM | SF-539 > 100 µM | OVCAR-5 > 100 µM | OVCAR-3 > 100 µM | MOLT-4 > 100 µM | KM12 > 100 µM | HOP-92 > 100 µM | NCI-H460 > 100 µM | SW-620 > 100 µM | OVCAR-8 > 100 µM | HCT-116 > 100 µM | HT-29 > 100 µM

O=C1NC2=C(CCCC/C2=N\O)C12CCCCC2
inactive: UO-31 > 100 µM | HCC 2998 > 100 µM | K562 > 100 µM | UACC-257 > 100 µM | A549 > 100 µM | SF-539 > 100 µM | OVCAR-5 > 100 µM | OVCAR-3 > 100 µM | MOLT-4 57.8 µM | KM12 > 100 µM | RXF 393 > 100 µM | NCI-H460 > 100 µM | SW-620 > 100 µM | HCT-116 > 100 µM | HT-29 > 100 µM | Malme-3M > 100 µM
